Like-named read-outs stand apart in the source and are kept apart here. Each block holds one compound with its values, some of them ahead of it.
How the values were obtained:
[1] = In vivo SPECT study of cerebral blood flow in rabbits; parameters: species or system rabbits (New Zealander); conditions: for contrast [brain/background]: rabbit SPECT, 8 minutes p.i., 15 minutes p.i.; for contrast [brain/background] / cerebral uptake: HM-PAO 59 MBq, cytectrene 14 MBq; for cerebral uptake: rabbit, i.v., test from 8 minutes p.i., from 15 minutes p.i., 2400 seconds
Method: In an in vivo study on rabbits (New Zealander, breeding by Schering AG Berlin, approximately 4 kg, male), the cerebral blood flow of commercially available HM-PAO was compared with the N-methyl-piperidin-4-ol-cytectrenecarboxylic acid ester (produced analogously to example 6).
The study was made with a SPECT camera of Apex 409 type.
After nembutal anesthesia, the animal was intravenously administered 1 ml of an isotonic, aqueous, sterile solution of ^99m Tc-HMPAO or said cytectrene derivative.
The recording technique and the results are described by the following table.

[2] = 99mTc concentration in rat brain and brain/blood concentration quotient (FIGS. 2 and 3); type: in vivo
Method: FIG. 2 graphically illustrates the results of tests on ^99m Tc concentration in the brain (% dose/% weight). In the experiments, the rats (n=4) intravenously received about 5 μCi of the Tc-99-labeled ester dissolved in 0.1 ml of EtOH/0.9% NaCl per animal. The esters, i.e., 4-pip-ester, 3-pip-ester and quin.-ester, were obtained from cytectrene-carboxylic acid and the following, respectively: 4-hydroxy-N-(methyl)-piperidine, 3-hydroxy-N-(methyl)-piperidine and 3-quinuclidinol. 15 minutes after HM-PAO administration, the brain concentration is at 1.7% dose/% weight. […] The rats (n=4) intravenously received about 5 μCi of the Tc-99-labeled ester dissolved in 0.1 ml of EtOH/0.9% NaCl per animal. The esters tested were obtained from cytectrenecarboxylic acid and 4-hydroxy-N-(methyl)-piperidine, 3-hydroxy-N-(methyl)-piperidine and 3-quinuclidinol, respectively. 15 minutes after HM-PAO administration, the brain/blood quotient is at 1.5:1.

[3] = Organ distribution in mice of 99mTc-acetylcymantrene; type: in vivo
Method: (§1) The organ distributions in mice and rats as well as partially in rabbits were tested by the technetium-labeled cytectrene derivatives. The organ distribution of the ^99m Tc-labeled cytectrene derivatives is a function of the substituent on the cyclopentadienyl ring system.

[4] = Chemical stability, decomposition by chromatography; type: physicochemical; conditions: after 24 hours, chromatographically
Excerpt: This lipophilic ^99m Tc-compound can be obtained in pure form by elution of the corresponding silica gel fraction (RF =0.36), e.g., with ethanol. The radiochemical purity is established by rechromatography of the eluate.

[5] = cited from earlier work
[6] = clinical use, because of insufficient stability; cited from earlier work
[7] = Organ distribution of Tc-labeled cytectrene derivatives vs pertechnetate (FIG. 1); type: in vivo, mice and rats, partially rabbits; conditions: pertechnetate for comparison
Method: as §1
FIG. 1 indicates the organ distribution of various cytectrene derivatives. For comparison, the organ distribution of pertechnetate was also recorded in this table. From the organ concentrations, it can clearly be recognized that the organ distribution of the cytectrene derivatives drastically differs from the distribution after administration of pertechnetate. With pertechnetate, the organ with the highest radioactivity concentration is blood (2.6% of dose/% body weight). On the other hand, the ^99m Tc cytectrene derivatives show a pronounced affinity for other, respectively different organs. The affinity for the individual organ is clearly dependent on the side chain of the cytectrene compound.

cerebral uptake [1]: 7.5 % of the administered activity | concentration ratio of brain/blood, improvement factor over HM-PAO ([2]; compared with HM-PAO complexes): ~10 factor
Compound: cyclopentadienylcarboxylic acid-(N-methyl-piperidinol)-4-ester-^99m technetium-tricarbonyl complex
contrast [brain/background] [1]: 0.98 | visual delimitability of the brain in SPECT tests ([1]; rabbits, 14 MBq, compared with HM-PAO complex): more clearly visual delimitability of the brain in SPECT tests | concentration in the brain ([2]; i.v., about 5 μCi): about 4 % dose/% body weight

Compound: CC(=O)[C]1([Tc](=[C]=O)(=[C]=O)=[C]=O)C=CC=C1 [Example 1a, Tc-99m Acetyl-cytectrene]
organ distribution [3]: preferred concentration in liver and suprarenal glands | chemical stability of the labeled compound [4]: chemically stable, since after 24 hours, no decomposition is chromatographically detectable | chemical stability of the labeled compound ([4]; listed as Example 1b): chemically stable, after 24 hours, no decomposition is chromatographically detectable

cerebral uptake [1]: 5.9 % of the administered activity
Compound: C/C(=N\O)C(C)NCC(C)(C)CNC(C)/C(C)=N/O (centres unmarked) [HM-PAO, hexamethyl-propylenamine oxime]
contrast [brain/background] [1]: 0.98 | concentration in the brain ([5]; comparable measurements for known compounds, L. Bacciottini et al. 1990): around 1.7 % dose/% body weight | 99mTc concentration in the brain ([5]; rat, 15 minutes after HM-PAO administration): 1.7 % dose/% weight | time after labeling within which it has to be administered [6]: ≤ 30 min

Compound: [O]=[99Tc](=[O])(=[O])[O-] [pertechnetate, ^99m Tc-pertechnetate]
radioactivity concentration in blood (organ with the highest concentration) [7]: 2.6 % of dose/% body weight

Reference: patent US5538712A, “Cyclopentadienylcarbonyl 99MTC complexes, process for their production as well as their use in diagnostics” (Institut Fur Diagnostikforschung GmbH/an der Freien …, priority 1990, dated 1996)
